In one series the target is Cholinesterase (Homo sapiens, UniProt P06276). Put plainly: Inhibition of human serum BChE.
The nature of series [1]: Hydrolytic stability in 25 mM phosphate buffer at pH 7.3, 37 degC. It is filed as physicochemical. The note with it: for half-life: phosphate buffer; for t1/2: buffer.
Series [2] deals with Human immunodeficiency virus 1. As to the kind of experiment: Antiviral activity against HIV1 in CEM/0 cells. It is filed as functional, organism-based.
In series [3] the test system is Human immunodeficiency virus 2. Put plainly: Antiviral activity against H1V2 in CEM/0 cells. It counts as functional, organism-based.
The test system of series [4] is Human immunodeficiency virus 2. As to the kind of experiment: Antiviral activity against H1V2 in TK-deficient CEM cells. It counts as functional, organism-based, CCRF-CEM.
A short description of series [5]: Cytotoxicity against CEM/0 cells. The conditions noted are these: human. It counts as cell-based, CCRF-CEM.
Where [6] appears, read: Human immunodeficiency virus 1, CCRF-CEM.
Where [7] appears, read: Human immunodeficiency virus 2, CCRF-CEM.

SMILES strings stand for the structures.

Broadly, the IC50 is the concentration that gives 50% inhibition. A high value points to lower potency. What is called half-life is the time in which the quantity being followed falls by half. Lower therefore signals fast loss. The EC50 is the midpoint of the concentration-response curve. Low values mean an effect from little substance, high ones a need for much substance. What is called CC50 is the concentration at which the toxic effect on the cells reaches its halfway point. Low values mean greater toxicity to the cells, high ones lower toxicity to the cells.

Sequence of Cholinesterase (P06276 whole entry): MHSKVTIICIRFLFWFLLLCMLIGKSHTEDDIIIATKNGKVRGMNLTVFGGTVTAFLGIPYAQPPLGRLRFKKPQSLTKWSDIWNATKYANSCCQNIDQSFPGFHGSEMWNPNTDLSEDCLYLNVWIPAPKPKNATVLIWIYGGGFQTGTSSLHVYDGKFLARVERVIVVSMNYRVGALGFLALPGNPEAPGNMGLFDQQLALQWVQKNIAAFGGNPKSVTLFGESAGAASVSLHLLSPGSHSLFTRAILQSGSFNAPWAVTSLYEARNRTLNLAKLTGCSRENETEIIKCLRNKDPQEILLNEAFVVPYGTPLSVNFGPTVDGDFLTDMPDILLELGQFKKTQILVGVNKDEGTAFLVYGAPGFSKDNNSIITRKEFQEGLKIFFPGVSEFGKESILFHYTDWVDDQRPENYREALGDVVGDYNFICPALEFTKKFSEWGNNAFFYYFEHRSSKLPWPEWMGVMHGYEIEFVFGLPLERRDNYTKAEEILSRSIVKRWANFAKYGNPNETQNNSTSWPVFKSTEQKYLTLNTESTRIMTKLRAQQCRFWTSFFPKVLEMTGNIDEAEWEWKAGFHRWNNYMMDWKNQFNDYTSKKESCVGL

Take `Cc1cn([C@H]2C=C[C@@H](COP(=O)(O)OCc3cccc(-c4cccc5c4OP(=O)(OC[C@@H]4C=C[C@H](n6cc(C)c(=O)[nH]c6=O)O4)OC5)c3O)O2)c(=O)[nH]c1=O` (stereo not given in full): at Cholinesterase, the IC50 came out at 2300 nM.

Take `Cc1cn([C@H]2C=C[C@@H](COP3(=O)OCc4cccc(-c5ccccc5)c4O3)O2)c(=O)[nH]c1=O` (stereo not given in full): the half-life in series [1] was 5.1 h. In addition, the concentration for half-maximal inhibition (IC50) against Cholinesterase came out at 350 nM. The EC50 in series [2] (setting [6]) turned out to be 130 nM; in series [3] (setting [7]), 270 nM; in series [4] (setting [7]), 280 nM. The compound also showed a CC50 in series [5] (CEM/0 cells) of 22000 nM.

At Cholinesterase, `Cc1cc(CO)c(O)c(-c2cc(C)cc(CO)c2O)c1` gave an IC50 of more than 50000 nM. Moreover, the EC50 in series [2] (setting [6]) and in series [3] (setting [7]) was more than 150000 nM each time. This compound also returned a CC50 in series [5] (CEM/0 cells) of more than 150000 nM.

Regarding `Cc1cc2c(c(-c3cc(C)cc4c3OP(=O)(OC[C@@H]3C=C[C@H](n5cc(C)c(=O)[nH]c5=O)O3)OC4)c1)OP(=O)(OC[C@@H]1C=C[C@H](n3cc(C)c(=O)[nH]c3=O)O1)OC2` (stereo not given in full), the half-life in series [1] was 12 h. This compound also registered a 50% inhibitory concentration (IC50) on Cholinesterase of more than 50000 nM. Also, the concentration giving a half-maximal response (EC50) in series [2] (setting [6]) stood at 370 nM; in series [3] (setting [7]) it was 410 nM; in series [4] (setting [7]), 1600 nM. The compound also had a CC50 in series [5] (CEM/0 cells) of 67100 nM.

For `OCc1cccc(-c2cccc(CO)c2O)c1O`, the IC50 against Cholinesterase is more than 50000 nM. In addition, the EC50 in series [2] (setting [6]) and in series [3] (setting [7]) was more than 150000 nM each time. Further, the CC50 in series [5] (CEM/0 cells) is more than 150000 nM.

`Cc1cn([C@H]2C=C[C@@H](COP3(=O)OCc4cccc(-c5cccc6c5OP(=O)(OC[C@@H]5C=C[C@H](n7cc(C)c(=O)[nH]c7=O)O5)OC6)c4O3)O2)c(=O)[nH]c1=O` (single isomer, unassigned; diastereomer 1): half-maximal inhibition against Cholinesterase (IC50) required 14000 nM. Besides, the EC50 was 250 nM in series [2] (cem/0), 300 nM in series [3] (cem/0) and 3330 nM in series [4] (ccrf-cem). This compound registered a 50% cytotoxic concentration (CC50) in series [5] (ccrf-cem) of 107000 nM.

At Cholinesterase, `Cc1cn([C@H]2C=C[C@@H](COP3(=O)OCc4cccc(-c5cccc6c5OP(=O)(OC[C@@H]5C=C[C@H](n7cc(C)c(=O)[nH]c7=O)O5)OC6)c4O3)O2)c(=O)[nH]c1=O` (single isomer, unassigned; diastereomer 2) displayed a concentration for half-maximal inhibition (IC50) of more than 50000 nM. Moreover, the EC50 in series [2] (cem/0) amounted to 210 nM; in series [3] (cem/0), 220 nM; in series [4] (ccrf-cem), 2370 nM. Further, the 50% cytotoxic concentration (CC50) in series [5] (ccrf-cem) came out at 90700 nM.

`Cc1cn([C@H]2C=C[C@@H](COP3(=O)OCc4cccc(-c5cccc6c5OP(=O)(OC[C@@H]5C=C[C@H](n7cc(C)c(=O)[nH]c7=O)O5)OC6)c4O3)O2)c(=O)[nH]c1=O` (stereo in doubt; 6) yielded an IC50 against Cholinesterase of 40000 nM. Further, the EC50 in series [2] (setting [6]) is 190 nM; in series [3] (setting [7]) it was 270 nM; in series [4] (setting [7]), 2330 nM. In series [5] (ccrf-cem), the CC50 came to 27800 nM.

In turn, `Cc1cn([C@H]2C=C[C@@H](COP3(=O)OCc4cccc(-c5cccc(CO)c5O)c4O3)O2)c(=O)[nH]c1=O` (stereo in doubt; 29(Rp)) displayed a t1/2 in series [1] of 1.4 h. This compound came in with an IC50 against Cholinesterase of more than 50000 nM. Moreover, the EC50 in series [2] (cem/0) was 270 nM; in series [3] (cem/0) it was 500 nM; in series [4] (ccrf-cem), 700 nM. Further, the midpoint of cytotoxicity in series [5] (ccrf-cem), the CC50, lay at 69400 nM.

Turning to `Cc1cn([C@H]2C=C[C@@H](COP3(=O)OCc4cccc(-c5cccc(CO)c5O)c4O3)O2)c(=O)[nH]c1=O` (stereo in doubt; 29(Sp)), the half-life in series [1] was 1.1 h. The compound also had an IC50 against Cholinesterase of 790 nM. Also, the EC50 in series [2] (setting [6]) worked out at 340 nM; in series [3] (setting [7]), 400 nM; in series [4] (ccrf-cem), 1500 nM. In series [5] (CEM/0 cells), this compound showed a CC50 of 78700 nM.

Consider `Cc1cn([C@H]2C=C[C@@H](COP3(=O)OCc4cccc(-c5cccc(CO)c5O)c4O3)O2)c(=O)[nH]c1=O` (stereo in doubt; 29), for which the t1/2 in series [1] stood at 1.3 h. Also, on Cholinesterase, the half-maximal inhibitory concentration (IC50) is 2300 nM.

As for `Cc1cn([C@H]2C=C[C@@H](COP3(=O)OCc4cccc(-c5cccc6c5OC(C)(C)OC6)c4O3)O2)c(=O)[nH]c1=O` (stereo in doubt; 33(Rp)), the t1/2 in series [1] was 21 h. In addition, the IC50 against Cholinesterase was more than 50000 nM. Moreover, the figures for the EC50 in series [2] (cem/0) and in series [4] (ccrf-cem) were 360 nM and 550 nM, respectively. Besides, in series [5] (ccrf-cem), the CC50 stood at 55300 nM.

Regarding `Cc1cn([C@H]2C=C[C@@H](COP3(=O)OCc4cccc(-c5cccc6c5OC(C)(C)OC6)c4O3)O2)c(=O)[nH]c1=O` (stereo in doubt; 33(Sp)), the half-life in series [1] is 14 h. The IC50 on Cholinesterase amounted to 3600 nM. For the same compound, the figures for the concentration giving a half-maximal response (EC50) in series [2] (setting [6]), in series [3] (setting [7]) and in series [4] (ccrf-cem) were 500 nM, 400 nM and 3000 nM, respectively. The compound further came in with a CC50 in series [5] (CEM/0 cells) of 89300 nM.

In series [1], `Cc1cn([C@H]2C=C[C@@H](COP3(=O)OCc4cccc(-c5cccc6c5OC(C)(C)OC6)c4O3)O2)c(=O)[nH]c1=O` (stereo in doubt; 33) gave a t1/2 of 16 h. Inhibition on Cholinesterase was half-maximal at 4700 nM (IC50). In addition, the EC50 in series [2] (cem/0) stood at 350 nM; in series [4] (ccrf-cem), 1070 nM. The compound also displayed a CC50 in series [5] (ccrf-cem) of 65000 nM.

For `Cc1cn([C@H]2C=C[C@@H](CO)O2)c(=O)[nH]c1=O` [STAVUDINE], the 50% effective concentration (EC50) worked out at 250 nM in series [2] (setting [6]), 190 nM in series [3] (setting [7]) and 51000 nM in series [4] (setting [7]). The compound further registered a CC50 in series [5] (CEM/0 cells) of 105000 nM.

(Values after ChEMBL document CHEMBL1142967, “Bis-cycloSal-d4T-monophosphates: drugs that deliver two molecules of bioactive nucleotides” (J Med Chem, 2007).)
